Results taken from patent US7098219B2, “Inhibitors of cellular efflux pumps of microbes” (Wockhart Limited, priority 2000, dated 2006).

How the values were obtained:
[1] = test system: Mef Efflux Pump of Streptococcus pneumoniae 3514 and Streptococcus pyogenes 26-00; assay: Two plate diffusion assay for macrolide (Mef) efflux pump inhibitors, azithromycin plate versus control plate; format: cell-based; details: zone of inhibition in antibiotic plate (method: azithromycin 0.5 mcg/ml; footnote: levofloxacin) minus water control plate; strain not given
E. coli 2051 = assay: Antibiotic diffusion assay, levofloxacin plate versus water control plate; format: cell-based, Escherichia coli; details: zone of inhibition in levofloxacin (15 mcg/ml) plate minus water control plate; Mueller Hinton Agar, 35° C. 20 hours
Method: (§1) Testing method for Inhibition of the Efflux Pumps of Pseudomonas aeruzinosa 23587, E. coli 2051, Streptococcus pneumoniae 3514 and Streptococcus pyozenus 26-00
The activity of an efflux pump inhibitor of E. coli 2051 was also assessed using an antibiotic diffusion assay. For this assay E. coli 2051 is used. E. coli 2051 is a clinical isolate containing multiple efflux pumps. E. coli 2051 are grown in tryptic soya broth for 20 hours at 35° C. Two antibiotic assay plates are prepared in Mueller Hinton Agar using above inoculum. The bacterial count in a plate is 1×10^6 cells/ml. In one of the plates, levofloxacin is incorporated at 15 mcg/ml, while in the control plate an equivalent amount of water is added. […]. The plates are incubated at 35° C. for 20 hours and the zone of inhibition was recorded in mm (table 3) . The difference in the diameter of zone of inhibition was calculated by subtracting from the zone of inhibition in the levofloxacin containing plate the diameter of the zone of inhibition in the control plate.

[2] = test system: Pseudomonas aeruginosa 23587; assay: as above; format: cell-based; details: zone of inhibition in levofloxacin (5 mcg/ml) plate minus water control plate; Mueller Hinton Agar, 35° C. 20 hours
Method: as §1
Antibiotic Diffusion Assay
The activity of efflux pump inhibitor was also assessed using an antibiotic diffusion assay. For this assay Pseudomonas aeruginosa 23587 is used. Pseudomonas aeruginosa 23587 is a clinical isolate containing multiple efflux pumps which can be mexAB, mexCD, mexEF but not limited to mex classification only. Pseudomonas aeruginosa are grown in tryptic soya broth for 20 hours at 35° C. Two antibiotic assay plates are prepared in Mueller Hinton Agar using above inoculum. The bacterial count in a plate is 1×10^6 cells/ml. In one of the plates, levofloxacin is incorporated at 5 mcg/ml, while in the control plate an equivalent amount of water is added. […]. The plates are incubated at 35° C. for 20 hours and the zone of inhibition was recorded in mm (table 2). The difference in the diameter of zone of inhibition was calculated by subtracting from the diameter of the zone of inhibition in the levofloxacin containing plate the diameter of the zone of inhibition in the water containing control plate. Example, if the diameter of the zone of inhibition in the levofloxacin plate is X mm and the diameter of the zone of inhibition in the control plate is Y mm, the difference Z=X−Y and is a measure of the activity of the efflux pump inhibitor.

[3] = test system: Staphylococcus aureus 1199 B NorA+; format: cell-based; details: combination with ciprofloxacin, broth microdilution checkerboard, 35° C. 20 hours; FIC index ≦0.5 synergistic, 0.5–2.0 additive, >2.0 antagonistic
How it was run: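 Broth microdilution checkerboard with ciprofloxacin against S. aureus 1199B NorA+, pump inhibitor titrated along one axis; inoculum 5×10^5 CFU/ml in Mueller Hinton broth, 35 °C for 20 hours. Growth read by visible turbidity, confirmed by plate reader; FIC index derived from inhibitor MIC in combination versus alone.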

COc1c(N2CCC(N)C(C)C2)c(F)cc2c(=O)c(C(=O)O)cn(C3CC3)c12 (stereo not shown) [Example 3 (P. aeruginosa), 1-Cyclopropyl-6-fluoro-8-methoxy-1,4-dihydro-7-(4′-amino-3′-methylpiperidin-1-yl)-4-oxo-quinoline-3-carboxylic acid]
Difference in Zone diameter Z1 (mm) [1]: 26 mm | Difference in Zone diameter Z1 (mm) (E. coli 2051): 10 mm | Difference in Zone diameter Z1 (mm) [2]: 7 mm

10-Fluoro-11-[(1∝,5∝,6∝)-6-amino-3-azabicyclo[3.1.01]hex-3yl]-3,4-dihydro-4(S)-methyl-8-oxo-2H,8H-pyrido[1,2,3-ef]-1,5-benzoxazipin-7-carboxylic acid. HCl [Example 37 (P. aeruginosa)]
Difference in Zone diameter Z1 (mm) (E. coli 2051): 5 mm | Difference in Zone diameter Z1 (mm) [2]: 2 mm

(R)-(+)-9,8-fluoro-8-fluoro-6,7-dihydro-5-methyl-1-oxo-1H,5H-benzo[i,j]quinolizine-2-carboxylate Methoxy phe-lys-OMe [Example 32 (P. aeruginosa)]
Difference in Zone diameter Z1 (mm) (E. coli 2051): 11 mm | Difference in Zone diameter Z1 (mm) [2]: 8 mm

C[C@H]1CCc2c(N3CCC(O)CC3)c(F)cc3c(=O)c(C(=O)O)cn1c23.OCCNCCO [Example 24 (P. aeruginosa), S-(−)-9-Fluoro-6,7-dihydro-8-(4′-hydroxypiperidin-1-yl)-5-methyl-1-oxo-1H,5H-benzo[i,j]quinolizine-2-carboxylic acid, diethanolamine salt]
Difference in Zone diameter Z1 (mm) (E. coli 2051): 11 mm | Difference in Zone diameter Z1 (mm) [2]: 4 mm

C[C@@H]1CN(c2c(F)cc3c(=O)c(C(=O)O)cn4c3c2CC[C@@H]4C)CC[C@H]1O (relative stereo) [Example 35 (P. aeruginosa), S-(−)-9-Fluoro-6,7-dihydro-8-(trans-4′-hydroxy-3′-methylpiperidin-1-yl]-5-methyl-1H,5H-benzo[i,j]quinolizine-2-carboxylic acid]
Difference in Zone diameter Z1 (mm) (E. coli 2051): 8 mm | Difference in Zone diameter Z1 (mm) [2]: 8 mm

(S)-(−)-Morpholinoethyl-9-fluoro-6,7-dihydro-8-(4′-hydroxypiperidin-1-yl)-5-methyl-1-oxo-1H,5H-benzo[i,j]quinolizine-2-carboxylic acid [Example 58 (NorA)]
FIC INDEX [3]: 0.370 | Difference in Zone diameter Z1 (mm) (E. coli 2051): 8 mm | Difference in Zone diameter Z1 (mm) [2]: 2 mm

CC(C)C[C@@H](N)C(=O)OC1CCN(c2c(F)cc3c(=O)c(C(=O)O)cn4c3c2CC[C@@H]4C)CC1.Cl [Example 29 (P. aeruginosa), (S)-(−)-9-Fluoro-6,7-dihydro-8-{4′-(D-leucyloxy)piperidin-1-yl}-5-methyl-1-oxo-1H,5H-benzo[i,j]quinolizine-2-carboxylic acid hydrochloride]
Difference in Zone diameter Z1 (mm) (E. coli 2051): 18 mm | Difference in Zone diameter Z1 (mm) [2]: 12 mm
